Measurements from patent US5726203A, “Qinghaosu derivatives against AIDS” (priority 1993, dated 1998).

Tested on: Plasmodium Berghei
Assay: Peters' four day inhibition test in mice, erythrocytic stage of Plasmodium Berghei
Format: in vivo
Conditions: once a day D0-D3, Hybrid Kunming strain mice, read-out: SD50 (the source's name)
Text: Effect on Erythrocytic Stage of Plasmodium Berghei 1. "Four day inhibition test" in mice To determinate the SD50 with Peters' "four day inhibition test". Hybrid Kunming strain mice, body weight 18-22 g, were inculated with 1×10^7 parasites infected RBC intraperitoneally on D0. Dihydroqinghaosu-methylcarbamate, dihydroqinghaosu-butylcarbamate, dihydroqinghaosu-benzenecarbamate and dihydroqinghaosu-4-nitrobenzenecarbamate with different concentration were given once a day from D0 -D3. Blood smears from mouse's tail were made on D4, stained with Gimsa reagent and examined under microscope to count the infected and uninfected erthrocyte to get infected rate. Inhibitory rates of different dosages were calculated by following formula. The SD50 was calculated by the simplified probit analysis: [formula]

For CNC(=O)OC1OC2OC3(C)CCC4C(C)CCC(C1C)C24OO3 (stereo not shown) [Dihydroqinghaosu-methylcarbamate, Dihydroqinghaosu-Methylcarbamate], the ED50 was 0.24 mg/kg.
